Measurements published in patent US20020193425A1, “Cancer chemopreventative compounds and compositions and methods of treating cancers” (priority 2001, published 2002).

Assays:
[1] = test system: HL-60; experiment: Cell cycle effects, DNA content by flow cytometry; type: cell-based, human; settings: Brusatol (25 ng/ml), 24 h
Experimental: About 10^6 cells from each sample were collected and washed twice with ice-cold PBS, fixed in 70% ethanol, and stored at 4° C. until analysis. The cells were stained with PI (50 μg/ml), treated with DNase-free RNase (10 μg/ml), and subjected to DNA content analysis using an EPICS Coulter flow cytometer. At least 10,000 cells were counted for each sample. The percentage of apoptotic cells was calculated by measuring the area under the sub-diploid (DNA <2 N) peak in the plot of cell number against cellular DNA content.
Cells were treated with solvent or brusatol (25 ng/ml) for 24 h, fixed in ethanol and stained with PI for flow cytometric analysis as described under “Materials and methods”. At least 10,000 cells were counted. Results are presented as the mean of triplicate samples (±standard deviation). G1=Gap1, S=Synthesis, G2/M=Gap2+Mitosis, Ap=sub-G1 apoptotic peak.

[2] = test system: DHL-6 cells; experiment: Membrane markers of B-lymphocyte maturation by flow cytometry; type: cell-based; settings: brusatol (5 ng/ml), control 197.5
Experimental: (§1) Cell lines were tested using a 4-day incubation protocol, unless otherwise specified.
(§2) 3) Determination of cell surface antigen by flow cytometry. Cells (10^6) were washed with PBS and then incubated for 30 min at room temperature with respective monoclonal antibodies, washed with 20 volumes of diluent (PBS with 0.1% sodium azide and 1% BSA), and resuspended in 0.5 ml of fresh diluent for evaluation. Necrotic cells were excluded from the analysis by propidium iodide (PI) staining. The following mAbs (Sigma, St. Louis, Mo.) were used to assess the maturation level of myeloid cell lines: antiCD15 (Leu M1), antiCD-11b (OKM1), antiCD14 and antiCD13. The following mAbs (Sigma, St. Louis, Mo.) were used to assess the maturation level of lymphocytic cell lines: antiCD20, antiHLA-DR and antikappa light chain.
(§3) Finally, various membrane markers of B-lymphocyte maturation (i.e., CD20, superficial light chain kappa and HLA-DR) in SUPB13, RS4;11, Reh, Daudi and DHL-6 were analyzed. Few changes were observed, but brusatol induced a small increase in CD20 with DHL-6 cells (197.5 control vs. 225.3 brusatol (5 ng/ml), specific mean fluorescence intensity), and a larger increase of HLA-DR in Daudi cells (92.5 control vs. 244.9 brusatol (10 ng/ml), specific mean fluorescence intensity).

[3] = test system: Daudi cells; experiment: as above; type: cell-based; settings: brusatol (10 ng/ml), control 92.5
Experimental: as §1, §2, §3

[4] = test system: K562; experiment: NBT-reduction differentiation assay, leukemic panel; type: cell-based; settings: 4 days
Experimental: as §1
2) NBT/NSE/SE. Evaluation of NBT reduction was used to assess the ability of sample-treated cells to produce superoxide when challenged with TPA. A 1:1 (v/v) mixture of a cell suspension (10^6 cells) and TPA/NBT solution (2 mg/ml NBT and 1 μg/ml TPA in phosphate buffer saline (PBS)) was incubated for 1 h at 37° C. Then, cells were smeared on glass slides, and counterstained with 0.3% (w/v) safranin O in methanol. Positive cells reduce NBT yielding intracellular black-blue formazan deposits. NSE/SE are monocytic/granulocytic esterases that can be visualized by cytochemical staining using commercially available kits (α-Naphthyl Acetate Esterase and Naphthol As-D Chloroacetate Esterase kits, Sigma Chemical Co., St. Louis, Mo.). Positive-stained cells were quantified by microscopic examination of >200 cells. Results were expressed as a percentage of positive cells.
Concentration-dependent effect of brusatol on: (a) NBT-reduction (monocyte/granulocyte marker) of HL-60, K562, NB4, U937, and BV173 and (b) NSE expression (monocyte marker) in K562, Kasumi-1, NB4, and BV173 cells, respectively. Data points are the mean of duplicate samples.

[5] = test system: HL-60 cells; experiment: Withdrawal assays, growth and differentiation of HL-60 cells; type: cell-based, human; settings: 12.5 ng/ml
Experimental: The irreversibility of brusatol effects on growth and differentiation of HL-60 cells was tested using withdrawal assays during a 4-day experiment.
The assay lasted for 4 days (96 h) and then, cells were analyzed for viability and differentiation markers. […] Results are shown as the mean of duplicate samples (±standard deviation).

[6] = test system: JB6 cells; settings: dose-dependent manner; cited from earlier work
[7] = Cytotoxicity, viability by Trypan blue exclusion; settings: human, RS4;11 cells, Cytotoxicity (IC50, ng/ml), four days
Experimental: (§4) All cell lines were maintained in suspension culture using RPMI 1640 medium supplemented with 10% heat-inactivated fetal bovine serum, 100 units of penicillin/ml and 100 μg of streptomycin/ml at 37° C. in a humidified atmosphere of 5% CO2 in air.
(§5) Cellular viability was monitored by Trypan blue exclusion.
(§6) ^aViability was determined by Trypan blue exclusion in duplicate samples. […] Results are expressed as median inhibitory cell concentrations of two independent experiments (±standard deviations).

[8] = test system: RS4;11; experiment: Cytotoxicity, viability by Trypan blue exclusion; settings: four days
Experimental: as §4, §5, §6

COC(=O)[C@@]12OC[C@]34[C@H]([C@@H](O)[C@@H]1O)[C@@]1(C)CC(=O)C(O)=C(C)[C@@H]1C[C@H]3OC(=O)[C@H](OC(=O)C=C(C)C)[C@@H]24 [compound 1, brusatol]
G1 [1]: G1 = 68.7 ± 0.9
G2/M [1]: G2/M = 18.3 ± 1.1
S [1]: S = 13.0 ± 1.0
CD20, specific mean fluorescence intensity [2]: 225.3
HLA-DR, specific mean fluorescence intensity [3]: 244.9
NBT-reduction, peak induction [4]: 75%
cells induced to differentiate ([5]; withdrawal after 48 h of exposure, 4-day experiment): 41%
cells induced to differentiate ([5]; without withdrawal): 46%
TPA-induced anchorage-independent growth of JB6 cells [6]: inhibits
IC50 at 4 days [7]: < 0.025 µg/mL
Cytotoxicity (IC50, ng/ml) [8]: 25 ± 2 ng/mL
